This note sets out measurements from PubChem BioAssay (NCI).

Among the test systems are OVCAR-3 ovarian; SNB-19 CNS; SK-OV-3 ovarian; COLO 205 colon; NCI-H460 lung; CAKI-1 renal; NCI-H23 lung; HCT-15 colon; HOP-92 NSCLC; SF-268 CNS.
What all share (assay): NCI anticancer screen, dose series, 48 h

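Briefly, cells in 96-well plates were exposed to five compound concentrations for 48 h, and endpoints were estimated by linear interpolation. At the GI50, growth is halved. Definition used: TGI = concentration required for complete inhibition of growth.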

Turning to `CN1CCN(Cn2nc(-c3cc(F)c(Cl)cc3Cl)oc2=S)CC1`, the GI50 in the test with OVCAR-3 ovarian is 37.4 µM; with SNB-19 CNS, 35.2 µM; in the test on SK-OV-3 ovarian it was 56.9 µM; in the test on COLO 205 colon, 23.6 µM; in the test with NCI-H460 lung it was 41.2 µM; in the test with CAKI-1 renal, 34.2 µM. For the same compound, the GI50 with NCI-H23 lung was 76.5 µM; with HCT-15 colon, 39.7 µM; in the test with HOP-92 NSCLC it was more than 100 µM; in the test with SF-268 CNS it was 34.2 µM. The TGI with OVCAR-3 ovarian was more than 100 µM; in the test with SNB-19 CNS, more than 100 µM; in the test with SK-OV-3 ovarian, more than 100 µM; with COLO 205 colon, 51.6 µM; with NCI-H460 lung it was more than 100 µM; with CAKI-1 renal it was more than 100 µM. The TGI in the test on NCI-H23 lung, with HCT-15 colon, in the test with HOP-92 NSCLC and in the test on SF-268 CNS was more than 100 µM each time.
`O=c1[nH]c(-c2ccc(Cl)cc2)cc2ccsc12`: the TGI in the test on OVCAR-3 ovarian is 4.26 µM; with SNB-19 CNS it was 7.71 µM; in the test on SK-OV-3 ovarian, 77.9 µM; with COLO 205 colon it was more than 100 µM; in the test with NCI-H460 lung it was more than 100 µM; in the test with CAKI-1 renal, 7.04 µM. The TGI was more than 100 µM in the test with NCI-H23 lung, more than 100 µM in the test with HCT-15 colon, 77.4 µM in the test with HOP-92 NSCLC and more than 100 µM in the test with SF-268 CNS.
Regarding `COc1cccc2c1C(=O)c1c(O)c3c(c(O)c1C2=O)CC(O)(C(C)=O)CC3O` (stereo not given), the TGI in the test on OVCAR-3 ovarian was determined as 23.8 µM; in the test on SNB-19 CNS, 32.8 µM; in the test with SK-OV-3 ovarian, 36.9 µM; in the test with COLO 205 colon, 24.7 µM; with NCI-H460 lung, 7.42 µM; in the test on CAKI-1 renal, 21.8 µM. Further, the TGI in the test on NCI-H23 lung worked out at 16.4 µM; in the test with HCT-15 colon it was 39.8 µM; with HOP-92 NSCLC it was 28.9 µM; in the test on SF-268 CNS, 31.9 µM.
